Legend:
[1] = target: T1, GlcNAc-phosphotransferase (UDP-GlcNAc: lysosomal enzyme GlcNAc alpha 1-phosphotransferase) (Homo sapiens, UniProt Q3T906); test: radiometric transferase assay, QAE-Sephadex; assay type: biochemical; conditions: normal liver homogenate, range of three preparations, Mn2+, Mg2+, ATP, pH 7.4, 37 °C
T1 construct: gene GNPTAB; native enzyme in 600 g supernatant of human normal liver homogenate (autopsy tissue), not purified; alpha/beta precursor is cleaved into alpha and beta chains (alpha2beta2gamma2); with N-acetylglucosamine-1-phosphotransferase subunit gamma

[2] = target: T2, phosphodiester glycosidase (phosphodiester alpha-N-acetylglucosaminidase) (Homo sapiens, UniProt Q9UK23); test: radiometric release of [3H]GlcNAc, QAE-Sephadex; assay type: biochemical; conditions: liver homogenate; Triton X-100, N-acetylmannosamine, EDTA, pH 7.4, 37 °C; labelled compound
T2 construct: gene NAGPA; native enzyme in 600 g supernatant of human normal liver and hepatoma homogenates, not purified
T2 sequence (Q9UK23 50-515): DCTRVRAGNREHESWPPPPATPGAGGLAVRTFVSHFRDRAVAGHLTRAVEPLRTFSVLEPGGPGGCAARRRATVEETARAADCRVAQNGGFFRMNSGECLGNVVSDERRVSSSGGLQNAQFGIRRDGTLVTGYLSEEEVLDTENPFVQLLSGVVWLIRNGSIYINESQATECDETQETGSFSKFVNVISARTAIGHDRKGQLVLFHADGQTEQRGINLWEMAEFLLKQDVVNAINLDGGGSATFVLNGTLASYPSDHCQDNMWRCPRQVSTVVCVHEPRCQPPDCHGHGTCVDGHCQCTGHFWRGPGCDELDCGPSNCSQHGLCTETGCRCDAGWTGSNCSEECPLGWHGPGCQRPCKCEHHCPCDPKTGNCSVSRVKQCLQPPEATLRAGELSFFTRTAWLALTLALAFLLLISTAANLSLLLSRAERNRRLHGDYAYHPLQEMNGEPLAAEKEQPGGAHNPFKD

T1 sequence (Q3T906 1-928): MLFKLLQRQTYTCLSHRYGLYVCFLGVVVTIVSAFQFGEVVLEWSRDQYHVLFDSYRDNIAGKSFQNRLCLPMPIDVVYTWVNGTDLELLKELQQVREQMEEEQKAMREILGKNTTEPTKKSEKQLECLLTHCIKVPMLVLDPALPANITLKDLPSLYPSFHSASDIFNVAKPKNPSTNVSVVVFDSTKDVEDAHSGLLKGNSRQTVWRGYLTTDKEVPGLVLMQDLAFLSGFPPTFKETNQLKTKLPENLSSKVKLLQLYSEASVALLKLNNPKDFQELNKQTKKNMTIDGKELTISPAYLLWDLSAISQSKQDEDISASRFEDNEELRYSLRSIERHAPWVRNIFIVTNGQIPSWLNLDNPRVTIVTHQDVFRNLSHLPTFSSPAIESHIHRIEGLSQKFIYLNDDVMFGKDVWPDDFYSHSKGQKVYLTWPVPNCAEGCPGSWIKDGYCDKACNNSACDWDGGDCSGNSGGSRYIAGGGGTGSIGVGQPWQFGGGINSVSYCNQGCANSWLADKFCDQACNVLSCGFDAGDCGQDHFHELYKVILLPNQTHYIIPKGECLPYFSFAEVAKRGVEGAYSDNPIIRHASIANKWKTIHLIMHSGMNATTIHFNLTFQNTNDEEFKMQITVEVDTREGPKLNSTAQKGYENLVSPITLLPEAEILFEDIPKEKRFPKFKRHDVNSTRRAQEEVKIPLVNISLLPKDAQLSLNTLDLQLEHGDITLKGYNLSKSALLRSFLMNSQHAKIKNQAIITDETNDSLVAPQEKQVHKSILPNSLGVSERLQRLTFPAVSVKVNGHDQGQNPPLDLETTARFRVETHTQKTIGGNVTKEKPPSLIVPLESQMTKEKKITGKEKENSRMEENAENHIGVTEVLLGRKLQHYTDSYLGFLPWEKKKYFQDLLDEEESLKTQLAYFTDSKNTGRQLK
T1 sequence (Q3T906 929-1256): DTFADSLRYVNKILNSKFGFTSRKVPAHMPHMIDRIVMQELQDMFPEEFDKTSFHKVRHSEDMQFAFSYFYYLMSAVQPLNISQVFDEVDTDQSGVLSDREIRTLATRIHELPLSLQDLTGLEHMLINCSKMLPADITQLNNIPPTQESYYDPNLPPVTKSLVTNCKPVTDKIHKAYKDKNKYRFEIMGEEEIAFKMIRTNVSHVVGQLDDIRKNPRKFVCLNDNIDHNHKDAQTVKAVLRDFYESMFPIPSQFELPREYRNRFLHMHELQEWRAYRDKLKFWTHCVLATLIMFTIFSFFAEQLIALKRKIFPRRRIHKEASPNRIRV
T1 sequence (Q9UJJ9 25-305 partner): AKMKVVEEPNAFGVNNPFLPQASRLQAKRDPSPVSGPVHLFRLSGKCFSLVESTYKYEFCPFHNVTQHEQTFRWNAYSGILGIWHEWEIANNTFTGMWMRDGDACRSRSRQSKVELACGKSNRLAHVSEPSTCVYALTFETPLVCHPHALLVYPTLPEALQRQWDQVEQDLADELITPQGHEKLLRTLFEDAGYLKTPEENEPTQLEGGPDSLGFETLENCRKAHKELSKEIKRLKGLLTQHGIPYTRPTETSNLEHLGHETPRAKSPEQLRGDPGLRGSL

With `CC(=O)N[C@H]1[C@@H](OP(=O)(O)OP(=O)(O)OC[C@H]2O[C@@H](n3ccc(=O)[nH]c3=O)[C@H](O)[C@@H]2O)O[C@H](CO)[C@@H](O)[C@@H]1O` [UDP-GlcNAc] the Km ([1]; acceptor alpha-methylmannoside, labelled compound) was 0.027 to 0.037 mM.
`CO[C@H]1O[C@H](COP(=O)(O)O[C@H]2O[C@H](CO)[C@@H](O)[C@H](O)[C@H]2NC(C)=O)[C@@H](O)[C@H](O)[C@@H]1O` [[6-3H]GlcNAc-P-6-(alpha-methyl)mannoside] was tested, and the “radiometric release of [3H]GlcNAc, QAE-Sephadex” value [2] was “amount of the labelled substrate used for the glycosidase assay was not sufficient to measure Km”.
Work on `CO[C@H]1O[C@H](CO)[C@@H](O)[C@H](O)[C@@H]1O` [alpha-methylmannoside] yielded a Km ([1]; co-substrate [beta-32P]UDP-GlcNAc) of 50 to 100 mM.

Source: publication PMC1972543, “Elevated carbohydrate phosphotransferase activity in human hepatoma and phosphorylation of cathepsin D” (British Journal of Cancer, 1991)
